The source of these data is patent US9303045B2, “5-HT3 receptor antagonists” (Takeda Pharmaceutical Company Limited, priority 2013, dated 2016).

This assay addresses 5HT3a receptor expressed in HEK-293T cells (Homo sapiens (Human), UniProt P46098). As to the kind of experiment: Inhibition of Ca flux activity of 5HT3 in vitro assay. In kind it is cell-based. The settings on record: calcium flux, 5HT 216 nM, approximate values. As for the experimental part:
Inhibition of Ca Flux Activity of 5HT3 In Vitro Assay
The 5HT3 antagonist activity of the compounds of the invention was determined by measuring the ability of the compounds to inhibit the calcium flux activity of […] receptor expressed in HEK-293T cells. HEK-293T cells were transfected with the 5HT3a expression construct using Xtreme Gene 9 (Roche) in 150 mm tissue culture treated plates and incubated for 24 hours at 37° C. Cells were then split and plated at a density of 60K cells/well in poly-lysine coated, black 96-well plates with clear bottoms (BD BioSciences) and incubated overnight at 37° C. Growth media was removed and cells loaded with 200 uL calcium indicator dye in HBSS containing 20 mM HEPES (Calcium 5 Assay kit, Molecular Devices) and incubated at 37° C. for 1 hour. While cells were incubating, the 10× antagonist and agonist/antagonist addition plates were made. For 10× antagonist plate: half log serial dilutions (final concentrations range from 10^−7 through 10^−10 with the bottom well a negative, no ligand control) were made from test compounds in DMSO at a 1000× concentration and then diluted to 10× in HBSS/20 mM HEPES. For addition plate: 5HT was diluted to 100× in HBSS/20 mM HEPES (final concentration in the assay—216 nM) and 15 uL was added to each well of the addition plate, 15 uL of 10× compound was also added to the addition plate, and finally 120 uL of HBSS/20 mM HEPES (for a total of 150 uL). Cells were then removed from the incubator and equilibrated to room temperature for 10 minutes, then 22.5 uL of 10× test compounds were added in triplicate to the plates and incubated at room temperature for 10 minutes (Tropisetron was used as a positive control in every assay). Test plate and addition plate were loaded into the FlexStation III (Molecular Devices), and using the fluidics, 22.5 uL compound additions were made (at t=˜17 seconds), and fluorescence was measured for 90 seconds, reading every 2.2 seconds. Data sets were analyzed as max minus min using Software Max Pro (Molecular Devices). IC50 curves were generated using non-linear regression in GraphPad Prism.

Chain of 5HT3a receptor expressed in HEK-293T cells (P46098 24-478): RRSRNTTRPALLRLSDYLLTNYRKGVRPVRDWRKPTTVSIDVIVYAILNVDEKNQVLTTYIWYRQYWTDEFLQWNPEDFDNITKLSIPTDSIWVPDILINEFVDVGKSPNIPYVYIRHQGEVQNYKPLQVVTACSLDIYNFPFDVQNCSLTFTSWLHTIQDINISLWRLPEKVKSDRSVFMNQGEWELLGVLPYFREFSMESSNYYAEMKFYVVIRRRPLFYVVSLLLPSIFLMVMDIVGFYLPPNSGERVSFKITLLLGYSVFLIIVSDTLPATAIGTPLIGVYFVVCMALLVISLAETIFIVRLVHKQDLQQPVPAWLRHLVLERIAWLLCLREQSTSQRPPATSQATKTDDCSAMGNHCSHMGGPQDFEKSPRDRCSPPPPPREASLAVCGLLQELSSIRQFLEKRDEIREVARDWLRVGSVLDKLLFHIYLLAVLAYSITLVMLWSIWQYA

As for `O=C(NC1C[C@H]2COC[C@@H](C1)N2)c1cn(CC(F)F)c2ncccc12` (stereo partly drawn) [Example 82, N-((1R,5S,7S)-3-oxa-9-azabicyclo[3.3.1]nonan-7-yl)-1-(2,2-difluoroethyl)-1H-pyrrolo[2,3-b]pyridine-3-carboxamide, 2,2,2-trifluoroacetate], the IC50 (usually the concentration at which inhibition is half-maximal) was above 1000 nM.
Under `CN1[C@@H]2CC[C@H]1CC(OC(=O)c1cn([C@@H]3CCOC3)c3ccccc13)C2` (stereo partly drawn) [Example 83, (1R,3R,5S)-8-methyl-8-azabicyclo[3.2.1]octan-3-yl 1-((R)-tetrahydrofuran-3-yl)-1H-indole-3-carboxylate, 2,2,2-trifluoroacetate] stands 1.04 nM; under `CN1[C@@H]2CC[C@H]1CC(OC(=O)c1c3n(c4ccccc14)CCCCO3)C2` (stereo partly drawn) [Example 84, (1R,3R,5S)-8-methyl-8-azabicyclo[3.2.1]octan-3-yl 2,3,4,5-tetrahydro-[1,3]oxazepino[3,2-a]indole-11-carboxylate, 2,2,2-trifluoroacetate], 1.64 nM; under `CN1[C@@H]2CC[C@H]1CC(OC(=O)c1c3n(c4ccccc14)CCCO3)C2` (stereo partly drawn) [Example 85, (1R,3R,5S)-8-methyl-8-azabicyclo[3.2.1]octan-3-yl 3,4-dihydro-2H-[1,3]oxazino[3,2-a]indole-10-carboxylate, 2,2,2-trifluoroacetate], 1.04 nM.
`CN1[C@@H]2CC[C@H]1CC(OC(=O)c1cn(S(C)(=O)=O)c3ccc(F)cc13)C2` (stereo partly drawn) [Example 86, (1R,3R,5S)-8-methyl-8-azabicyclo[3.2.1]octan-3-yl 5-fluoro-1-(methylsulfonyl)-1H-indole-3-carboxylate, 2,2,2-trifluoroacetate]: the IC50 amounted to 2.48 nM.
Under `CN1[C@@H]2CCC[C@H]1CC(OC(=O)c1cn(CCF)c3ccccc13)C2` (stereo partly drawn) [Example 87, (1R,3R,5S)-9-methyl-9-azabicyclo[3.3.1]nonan-3-yl 1-(2-fluoroethyl)-1H-indole-3-carboxylate, 2,2,2-trifluoroacetate] stands 0.18 nM.
As for `Cc1c(C(=O)OC2C[C@H]3CCC[C@@H](C2)N3C)c2ccccc2n1CCF` (stereo partly drawn) [Example 88, (1R,3R,5S)-9-methyl-9-azabicyclo[3.3.1]nonan-3-yl 1-(2-fluoroethyl)-2-methyl-1H-indole-3-carboxylate, 2,2,2-trifluoroacetate], the figure is 0.22 nM; as for `CN1[C@@H]2CCC[C@H]1CC(OC(=O)c1cn(CC(F)(F)F)c3ccc(F)cc13)C2` (stereo partly drawn) [Example 89, (1R,3R,5S)-9-methyl-9-azabicyclo[3.3.1]nonan-3-yl 5-fluoro-1-(2,2,2-trifluoroethyl)-1H-indole-3-carboxylate, 2,2,2-trifluoroacetate], 0.66 nM; as for `CN1[C@@H]2CC[C@H]1C[C@@H](NC(=O)c1nn(CC(F)F)c3ccccc13)C2` [Example 90, 1-(2,2-difluoroethyl)-N-((1R,3R,5S)-8-methyl-8-azabicyclo-[3.2.1]octan-3-yl)-1H-indazole-3-carboxamide, 2,2,2-trifluoroacetate], 0.75 nM.
Regarding `O=C(O[C@H]1CC[N@@]2CCO[C@@H]1C2)c1cn(CC(F)F)c2ccc(F)cc12` [Example 91, (1S,5R,6S)-4-oxa-1-azabicyclo[3.3.1]nonan-6-yl 1-(2,2-difluoroethyl)-5-fluoro-1H-indole-3-carboxylate, 2,2,2-trifluoroacetate], the IC50 is above 1000 nM.
As for `CC(C)S(=O)(=O)n1cc(C(=O)NC2CC3COCC(C2)N3C)c2cc(F)ccc21` [Example 93, 5-fluoro-1-(isopropylsulfonyl)-N-((1R,5S,7S)-9-methyl-3-oxa-9-azabicyclo[3.3.1]nonan-7-yl)-1H-indole-3-carboxamide, 2,2,2-trifluoroacetate], the figure is 1.39 nM; as for `CN1[C@@H]2CC[C@H]1CC(OC(=O)c1cn(CC(F)(F)F)c3ccccc13)C2` (stereo partly drawn) [Example 95, (1R,3R,5S)-8-methyl-8-azabicyclo[3.2.1]octan-3-yl 1-(2,2,2-trifluoroethyl)-1H-indole-3-carboxylate, 2,2,2-trifluoroacetate], 0.89 nM; as for `CN1C2CCC1CC(OC(=O)c1cn([C@H]3CCOC3)c3ccccc13)C2` (stereo partly drawn) [Example 96, (1R,3R,5S)-8-methyl-8-azabicyclo[3.2.1]octan-3-yl 1-((S)-tetrahydrofuran-3-yl)-1H-indole-3-carboxylate, 2,2,2-trifluoroacetate], 0.83 nM.
Under `CN1[C@@H]2CCC[C@H]1CC(NC(=O)c1cn(CC(F)F)c3ccc(F)cc13)C2` (stereo partly drawn) [Example 98, 1-(2,2-difluoroethyl)-5-fluoro-N-((1R,3R,5S)-9-methyl-9-azabicyclo[3.3.1]nonan-3-yl)-1H-indole-3-carboxamide, 2,2,2-trifluoroacetate] stands 5.45 nM.
As for `CN1[C@@H]2COC[C@H]1CC(OC(=O)c1cn(S(C)(=O)=O)c3ccc(F)cc13)C2` (stereo partly drawn) [Example 99, (1R,5S,7S)-9-methyl-3-oxa-9-azabicyclo[3.3.1]nonan-7-yl 5-fluoro-1-(methylsulfonyl)-1H-indole-3-carboxylate, 2,2,2-trifluoroacetate], the figure is 0.29 nM; as for `CN1[C@@H]2CCC[C@H]1CC(NC(=O)c1cn(S(C)(=O)=O)c3ccc(F)cc13)C2` (stereo partly drawn) [Example 100, 5-fluoro-N-((1R,3R,5S)-9-methyl-9-azabicyclo[3.3.1]nonan-3-yl)-1-(methylsulfonyl)-1H-indole-3-carboxamide, 2,2,2-trifluoroacetate], 12.8 nM; as for `O=C(OC1CC2COCC(C1)N2)c1cn(CC(F)F)c2ncccc12` [Example 101, (1R,5S,7S)-3-oxa-9-azabicyclo[3.3.1]nonan-7-yl 1-(2,2-difluoroethyl)-1H-pyrrolo[2,3-b]pyridine-3-carboxylate, 2,2,2-trifluoroacetate], above 1000 nM.
As to `CN1C2CCC1CC(NC(=O)c1cn(CC(F)(F)F)c3ncccc13)C2` [Example 102, N-((1R,3R,5S)-8-methyl-8-azabicyclo[3.2.1]octan-3-yl)-1-(2,2,2-trifluoroethyl)-1H-pyrrolo[2,3-b]pyridine-3-carboxamide, 2,2,2-trifluoroacetate], the IC50 is above 1000 nM.
With `CN1[C@@H]2CCC[C@H]1CC(OC(=O)c1cn(CC(F)(F)F)c3ncccc13)C2` (stereo partly drawn) [Example 103, (1R,3R,5S)-9-methyl-9-azabicyclo[3.3.1]nonan-3-yl 1-(2,2,2-trifluoroethyl)-1H-pyrrolo[2,3-b]pyridine-3-carboxylate, 2,2,2-trifluoroacetate], the IC50 worked out at 8.2 nM.
`O=C(NC1CC2COCC(C1)N2C(F)(F)F)c1cn(CC(F)F)c2ncccc12` [Example 104, 1-(2,2-difluoroethyl)-N-((1R,5S,7S)-9-(trifluoromethyl)-3-oxa-9-azabicyclo[3.3.1]nonan-7-yl)-1H-pyrrolo[2,3-b]pyridine-3-carboxamide, 2,2,2-trifluoroacetate]: the IC50 was above 1000 nM.
Under `O=C(NC1C[C@H]2COC[C@@H](C1)N2)c1cn(CC(F)(F)F)c2ncc(F)cc12` (stereo partly drawn) [Example 105, N-((1R,5S,7S)-3-oxa-9-azabicyclo[3.3.1]nonan-7-yl)-5-fluoro-1-(2,2,2-trifluoroethyl)-1H-pyrrolo[2,3-b]pyridine-3-carboxamide, 2,2,2-trifluoroacetate] stands 34.1 nM.
